Results taken from US20020183300A1, “Zinc ionophores as anti-stress agents” (priority 2001, published 2002).

Experiments:
[1] = system: cultured HUVEC, isolated cardiac myocytes, cultured cerebellar neurons; assay: Zinc ionophore screening with Fura-2 loaded cells (fluorescence ratio 340/380 nm); type: cell-based, human; rabbit; mouse; conditions: for ionophore activity compared across cell types: HUVEC, cardiac myocytes, cerebellar neurons; for zinc ionophore activity (slope of Fura-2 fluorescence intensity ratio): zinc-complexed holo-ionophore, 1 μM in superfusion buffer, 37° C.
Experimental: Human umbilical vein endothelial cells (HUVEC) were purchased from Clonetics (San Diego, Calif.) and passages DeKeyser F. G. et al. (2000) Neuroimmunomodulation 7:182-188; Revilla V. et al. Brain Res. Bull 49:413-418; Troullos E. et al. (1997) Clin. Pharmacol. Ther. 62:74-81 were used for these studies. Cells were cultured on flame-sterilzed glass coverslips in Endothelial Basal Medium (Clonetics) supplemented with 10 ng/ml human recombinant epidermal growth factor, 1.0 ug/ml hydrocortisone, 50 ug/ml gentamicin, 50ng/ml amphotetericin B, 12 ug/ml bovine brain extract and 2% v/v fetal bovine serum (all from Clonetics), in a humidified chamber at 37° C. and 5% CO2. To maintain cell populations, proliferating HUVEC were passaged at 80-90% confluency.
Cardiac myocytes were isolated from the ventricular septum of adult rabbit hearts, following collagenase digestion, in a manner similar to that described previously (Turan, B. et al., (1997) Am. J. Physiol. 272:H2095-H2106). The modification consisted of introducing low concentrations of CaCl2 during the perfusion with collagenase and the dispersion of the myocytes. Hearts were perfused for about 2 min by gravity under a hydrostatic pressure of 1 m, with a nominally Ca^2+-free solution containing (in mM): NaCl, 145; KCl, 5; MgSO4, 1.2; Na2HPO4, 1.8; HEPES, 5; glucose, 10; pH adjusted to 7.4 with NaOH. Forty ml of this perfusate were then supplemented with collagenase (1 mg/ml) and perfusion was continued with recirculation. […] The flow rate was then adjusted to 15 ml/min and 50 μM CaCl2 was added to the collagenase solution. Perfusion with this solution was continued for another 15 to 18 min, followed by a 2 min washout of the enzyme with fresh perfusate containing 100 μM CaCl2 and no collagenase. The hearts were then removed from the apparatus and the ventricular septum isolated and minced. Dissociation of the cells was obtained by gentle agitation of the minced tissue in 50 ml of the same perfusing solution. Following filtration through a 200 μm nylon mesh, the cells were allowed to settle and the supernatant was replaced with a solution containing 2 mM CaCl2. Cells were kept at 37° C. in this pre-oxygenated solution and were studied within 8 hours after isolation, cellular viability was ensured by regularly replacing the incubation solution.
Primary cultures of mouse cerebellar granule neurons were obtained from dissociated cerebella of postnatal day 8 or 9 mice according to the following protocol (Cregan et al., (1999) J. Neurosci. 19:7860-7869, incorporated herein by reference). Brains were removed and placed into separate dishes containing solution A (124 mM NaCl, 5.37 mM KCl, 1 mM NaH2 P04, 1.2 mM MgSO4, 14.5 mM D-(1)-glucose, 25 mM HEPES, 3 mg/ml BSA, pH 7.4) in which the cerebella were dissected, meninges removed, and tissue sliced into small pieces. The tissue was briefly centrifuged and transferred to solution A containing 0.25 mg/ml trypsin, then incubated at 37° C. for 18 min. After the addition of 0.082 mg/ml trypsin inhibitor (Boehringer Mannheim, Indianapolis, Ind.) and 0.25 mg/ml DNase I (Boehringer Mannheim), the tissue was incubated at 25° C. for 2 min. After a brief centrifugation, the resulting pellet was gently titrated in solution A yielding suspension that was further incubated for 10 min at 25° C. in solution A containing 2.7 mM MgSO4 and 0.03 mM CaCl2. After a final centrifugation the pellet was resuspended in EMEM media (Sigma, St. Louis, Mo.) containing 10% dialyzed FBS (Sigma), 25 mM KCl, 2 mM glutamine (Life Technologies BRL, Gaithersburg, Md.), 25 mM glucose, and 0.1 mg/ml gentamycin (Sigma) and filtered through a cell strainer (size 70 μm; Falcon). Cells were plated on glass coverslips coated with poly-D-lysine (Sigma) in Nunc fourwell dishes at a density of 1.5×10^6 cells per milliliter of medium. Cytosine-arabinoside (10 μM; Sigma) was added 24 hr after plating.

[2] = system: Spl; assay: Spl electrophoretic mobility shift assay on brain nuclear extracts, coronary artery ligation model; type: in vivo, rat; conditions: rats subjected to coronary occlusion 45 min, reperfusion 4 h; ZnDDC 8.3 ng/kg i.v. at 0, 1, 2 h postreperfusion
Experimental: (§1) Coronary artery ligation model Male Sprague-Dawley rats (250-300 g) were anesthetized, intubated and ventilated. The chest was opened and the coronary artery was ligated. After 45 min, the suture was released and reperfusion was continued for 4 h. Boluses (0.5 ml) of the zinc ionophores ZnP (1.2 μg/kg) and ZnDDC (8.3 ng/kg) were administered intravenously in 4% DMSO in saline at 0, 1, and 2 h postreperfusion. After 4 h of reperfusion the ligature was retied, and Evans blue dye was infused intravenously to demarcate the area at risk. The rats were then killed by exsanguination and the brain was collected for analysis. Sham-surgery rats were treated in an identical manner but without tying the ligature around the coronary artery.
(§2) Brain samples were homogenized on ice using six slow strokes of a Teflon pestle homogenizer at 1000 rpm in 8 volumes of buffer containing 0.25 M sucrose, 10 mM HEPES, pH 7.6, 25 mM KCl, 1 mM EDTA, 10% glycerol, 0.15 mM spermine, and 0.5 mM spermidine. […] Protein concentrations were determined using the Bio Rad protein assay.
(§3) Double-stranded consensus oligonucleotides for NF-kB and Spl (Promega, Madison, Wis.) were 5 radiolabelled with g[^32P]ATP (Amersham, Arlington Heights, Ill.). […] The intensity of the bands was quantitated with a densitometer and commercially available software (Molecular Analyst, Bio-Rad Laboratories, Hercules, Calif.).

[3] = system: NF-κB; assay: NF-κB electrophoretic mobility shift assay on brain nuclear extracts, coronary artery ligation model; type: in vivo, rat; conditions: rats subjected to coronary occlusion 45 min, reperfusion 4 h; i.v. boluses at 0, 1, 2 h postreperfusion; ZnP 1.2 μg/kg, ZnDDC 8.3 ng/kg
Experimental: as §1, §2, §3

Row | SMILES | zinc-ionophore properties [1] | ionophore activity compared across cell types [1] | zinc ionophore activity (slope of Fura-2 fluorescence intensity ratio) [1] | Spl binding activity in the brain (in words) [2] | NF-κB binding activity in the brain [3]
1 | Oc1c(I)cc(I)c2cccnc12 [5,7-Diiodo-8-hydroxyquinoline] | possess zinc-ionophore properties | comparable in all three cell types tested | 5,7-Diiodo-8-hydroxyquinoline ✓✓ | – | –
2 | Oc1cccc2cccnc12 [8-Hydroxyquinoline] | possess zinc-ionophore properties | – | 8-Hydroxyquinoline, ✓ | – | –
3 | CCN(CC)C(=S)SSC(=S)N(CC)CC [Disulfiram] | – | – | Disulfiram ✓✓ | – | –
4 | COc1ccc2c(c1)c(CC(=O)O)c(C)n2C(=O)c1ccc(Cl)cc1 [Indomethacin] | – | – | Indomethacin ✓ | – | –
5 | S=C(S)N1CCCC1 [Pyrrolidinedithiocarbamate] | – | – | Pyrrolidinedithiocarbamate ✓✓ | – | –
6 | CC1=C(/C=C/C(C)=C/C=C/C(C)=C/CO)C(C)(C)CCC1 [Vitamin A (all-trans-retinol), all-trans-retinol] | possess zinc-ionophore properties | – | Vitamin A (all-trans-retinol) ✓ | – | –
7 | Cc1c(C)c2c(c(C)c1O)CC[C@@](C)(CCC[C@H](C)CCC[C@H](C)CCCC(C)C)O2 [Vitamin E, alpha-tocopherol] | possess zinc-ionophore properties | – | – | – | –
8 | CCN(CC)C(=S)S [ZNDDC, zinc-diethyldithiocarbamate] | possess zinc-ionophore properties | comparable in all three cell types tested | diethyldithiocarbamate ✓✓ | restored Spl binding activity to normal | restored normal NF-κB binding activity
